Patent publication US9902702B2, “Spirocycloheptanes as inhibitors of rock” (BRISTOL-MYERS SQUIBB COMPANY, priority 2014, dated 2018)
Counter-ions that a name gives are not always drawn.

Tested on: neointimal formation
Experiment: not given
Details: rats, balloon injury model; cited from earlier work

| SMILES | neointimal formation |
| --- | --- |
| C[C@@H](N)[C@H]1CC[C@H](C(=O)Nc2ccncc2)CC1 [Example Y-27632] | inhibited neointimal formation |

Tested on: congestive heart failure in Dahl salt-sensitive rats
Experiment: not given
Details: cited from earlier work

| SMILES | ventricular hypertrophy, fibrosis and function |
| --- | --- |
| C[C@@H](N)[C@H]1CC[C@H](C(=O)Nc2ccncc2)CC1 [Example Y-27632] | improve ventricular hypertrophy, fibrosis and function |

Tested on: IL-1 beta-induced coronary stenosis
Experiment: not given
Details: porcine model, long term treatment; cited from earlier work

| SMILES | coronary constrictive remodeling | coronary stenosis |
| --- | --- | --- |
| O=S(=O)(c1cccc2cnccc12)N1CCCNCC1 [fasudil] | promote a regression of coronary constrictive remodeling | progressively reduce coronary stenosis |

Tested on: rat stroke model
Experiment: not given
Details: cited from earlier work

| SMILES | infarct size and neurologic deficit |
| --- | --- |
| O=S(=O)(c1cccc2cnccc12)N1CCCNCC1 [fasudil] | reduce both the infarct size and neurologic deficit |

Biological target: ROCK2 (Homo sapiens, UniProt O75116)
Sequence (O75116 whole entry, species assumed): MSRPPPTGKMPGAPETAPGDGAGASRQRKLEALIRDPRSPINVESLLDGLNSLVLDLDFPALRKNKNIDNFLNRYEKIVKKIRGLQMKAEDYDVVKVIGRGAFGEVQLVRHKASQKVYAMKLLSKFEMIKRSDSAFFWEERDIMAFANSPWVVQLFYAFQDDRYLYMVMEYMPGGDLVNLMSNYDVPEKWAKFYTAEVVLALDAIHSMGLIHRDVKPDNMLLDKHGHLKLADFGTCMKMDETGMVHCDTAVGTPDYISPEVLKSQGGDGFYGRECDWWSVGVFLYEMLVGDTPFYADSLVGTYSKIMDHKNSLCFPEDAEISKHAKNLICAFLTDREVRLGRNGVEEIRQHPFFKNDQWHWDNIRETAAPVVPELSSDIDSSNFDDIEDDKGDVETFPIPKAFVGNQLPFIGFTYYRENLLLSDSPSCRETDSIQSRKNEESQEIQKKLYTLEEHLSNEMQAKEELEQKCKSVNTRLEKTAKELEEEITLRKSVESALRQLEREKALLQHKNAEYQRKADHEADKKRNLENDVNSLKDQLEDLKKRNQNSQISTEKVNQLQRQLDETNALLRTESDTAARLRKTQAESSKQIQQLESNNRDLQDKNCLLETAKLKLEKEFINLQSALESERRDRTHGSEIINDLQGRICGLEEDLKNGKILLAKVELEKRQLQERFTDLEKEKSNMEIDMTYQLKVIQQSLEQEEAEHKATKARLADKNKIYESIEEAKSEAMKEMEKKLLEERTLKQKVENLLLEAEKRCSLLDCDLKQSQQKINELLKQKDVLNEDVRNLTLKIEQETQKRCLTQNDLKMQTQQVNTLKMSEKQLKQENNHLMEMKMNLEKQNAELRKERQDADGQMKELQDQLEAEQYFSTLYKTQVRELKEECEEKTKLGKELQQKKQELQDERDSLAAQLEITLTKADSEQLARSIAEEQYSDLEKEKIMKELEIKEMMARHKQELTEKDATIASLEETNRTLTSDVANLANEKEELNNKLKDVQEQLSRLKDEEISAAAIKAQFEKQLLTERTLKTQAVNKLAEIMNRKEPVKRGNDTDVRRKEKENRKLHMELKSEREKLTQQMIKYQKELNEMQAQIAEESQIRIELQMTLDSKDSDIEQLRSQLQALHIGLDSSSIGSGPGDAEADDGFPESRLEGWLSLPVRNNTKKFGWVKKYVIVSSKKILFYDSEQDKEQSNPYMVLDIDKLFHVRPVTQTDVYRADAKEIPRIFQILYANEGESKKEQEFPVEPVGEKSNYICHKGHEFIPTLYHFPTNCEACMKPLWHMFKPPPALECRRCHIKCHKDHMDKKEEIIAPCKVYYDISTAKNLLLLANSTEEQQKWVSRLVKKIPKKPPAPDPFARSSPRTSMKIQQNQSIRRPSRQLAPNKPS
Experiment: ROCK assay: phosphorylation of FITC peptide substrate, LABCHIP 3000 mobility shift
Format: biochemical
Details: 5 μM ATP, 1.5 μM peptide substrate; read-out: ROCK2 Activity (ROCK IC50 range)
Summary of the method: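 IC50 values come from curve-fitting percent kinase inhibition across a compound dilution series. The reaction is started with Rho kinase variant in HEPES pH 7.5 buffer with MgCl2, Brij-35 and DTT, with 5 μM ATP, 1.5 μM FITC-labelled peptide and under 2% DMSO. After EDTA quench, product and substrate are separated by microfluidic mobility shift.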

| SMILES | IC50 |
| --- | --- |
| [H][C@]1(c2n[nH]c(=O)c3ccccc32)C[C@]2(C[C@@H](NC(=O)c3cnc4cc(-c5cn(C(C)C)nc5C(F)(F)F)ccn34)C2)C1 (stereo partly drawn) [Example 444, 7-(1-isopropyl-3-(trifluoromethyl)-1H-pyrazol-4-yl)-N-((aR)-6-(4-oxo-3,4-dihydrophthalazin-1-yl)spiro[3.3]heptan-2-yl)imidazo[1,2-a]pyridine-3-carboxamide] | 0.00201 to 0.005 µM |
| [H][C@]1(c2n[nH]c(=O)c3ccccc32)C[C@]2(C[C@@H](NC(=O)c3ccc(-c4cnn(CC)c4)c(F)c3)C2)C1 (stereo partly drawn) [Example 445, 4-(1-ethyl-1H-pyrazol-4-yl)-3-fluoro-N-((aR)-6-(4-oxo-3,4-dihydrophthalazin-1-yl)spiro[3.3]heptan-2-yl)benzamide] | 0.0151 to 0.1 µM |
| [H][C@]1(c2n[nH]c(=O)c3ccccc32)C[C@]2(C[C@@H](NC(=O)c3ccc(-c4cnn(C(C)C)c4)c(F)c3)C2)C1 (stereo partly drawn) [Example 446, 3-fluoro-4-(1-isopropyl-1H-pyrazol-4-yl)-N-((aR)-6-(4-oxo-3,4-dihydrophthalazin-1-yl)spiro[3.3]heptan-2-yl)benzamide] | 0.00201 to 0.005 µM |
| [H][C@]1(c2n[nH]c(=O)c3ccccc32)C[C@]2(C[C@@H](NC(=O)c3ccc(-c4cnn(C)c4C(F)(F)F)c(F)c3)C2)C1 (stereo partly drawn) [Example 447, 3-fluoro-4-(1-methyl-5-(trifluoromethyl)-1H-pyrazol-4-yl)-N-((aR)-6-(4-oxo-3,4-dihydrophthalazin-1-yl)spiro[3.3]heptan-2-yl)benzamide] | 0.00201 to 0.005 µM |
| [H][C@]1(c2n[nH]c(=O)c3ccccc32)C[C@]2(C[C@@H](NC(=O)c3ccc(-c4cnn(C5CC5)c4)c(F)c3)C2)C1 (stereo partly drawn) [Example 448, 4-(1-cyclopropyl-1H-pyrazol-4-yl)-3-fluoro-N-((aR)-6-(4-oxo-3,4-dihydrophthalazin-1-yl)spiro[3.3]heptan-2-yl)benzamide] | 0.00201 to 0.005 µM |
| [H][C@]1(c2n[nH]c(=O)c3ccccc32)C[C@]2(C[C@@H](NC(=O)c3ccc(-c4cnn(C5CCOCC5)c4)c(F)c3)C2)C1 (stereo partly drawn) [Example 449, 3-fluoro-N-((aR)-6-(4-oxo-3,4-dihydrophthalazin-1-yl)spiro[3.3]heptan-2-yl)-4-(1-(tetrahydro-2H-pyran-4-yl)-1H-pyrazol-4-yl)benzamide] | 0.0051 to 0.015 µM |
| [H][C@]1(c2n[nH]c(=O)c3ccccc32)C[C@]2(C[C@@H](NC(=O)c3ccc(-c4cnn(C)c4)cn3)C2)C1 (stereo partly drawn) [Example 450, 5-(1-methyl-1H-pyrazol-4-yl)-N-((aR)-6-(4-oxo-3,4-dihydrophthalazin-1-yl)spiro[3.3]heptan-2-yl)picolinamide] | 0.0151 to 0.1 µM |
| [H][C@]1(c2n[nH]c(=O)c3ccccc32)C[C@]2(C[C@@H](NC(=O)c3ccc(-c4cnn(C)c4)cc3)C2)C1 (stereo partly drawn) [Example 451, 4-(1-methyl-1H-pyrazol-4-yl)-N-((aR)-6-(4-oxo-3,4-dihydrophthalazin-1-yl)spiro[3.3]heptan-2-yl)benzamide] | 0.0051 to 0.015 µM |
| [H][C@]1(c2n[nH]c(=O)c3ccccc32)C[C@]2(C[C@@H](NC(=O)c3cnc4cc(-c5cccnc5)ccn34)C2)C1 (stereo partly drawn) [Example 452, N-((aR)-6-(4-oxo-3,4-dihydrophthalazin-1-yl)spiro[3.3]heptan-2-yl)-7-(pyridin-3-yl)imidazo[1,2-a]pyridine-3-carboxamide] | 0.0002 to 0.002 µM |
| [H][C@]1(c2n[nH]c(=O)c3ccccc32)C[C@]2(C[C@@H](NC(=O)c3cn4ccc(-c5cccnc5)cc4n3)C2)C1 (stereo partly drawn) [Example 453] | 0.0151 to 0.1 µM |
| [H][C@]1(c2n[nH]c(=O)c3ccccc32)C[C@]2(C[C@@H](NC(=O)c3cn4ccc(-c5cnc(C)s5)cc4n3)C2)C1 (stereo partly drawn) [Example 454, 7-(2-methylthiazol-5-yl)-N-((aR)-6-(4-oxo-3,4-dihydrophthalazin-1-yl)spiro[3.3]heptan-2-yl)imidazo[1,2-a]pyridine-2-carboxamide] | 0.0151 to 0.1 µM |
| Cc1ncc(-c2ccn3c(C(=O)NC4CC5(C4)CC(c4n[nH]c(=O)c6ccccc46)C5)cnc3c2)s1 [Example 455, 7-(2-methylthiazol-5-yl)-N-((aR)-6-(4-oxo-3,4-dihydrophthalazin-1-yl)spiro[3.3]heptan-2-yl)imidazo[1,2-a]pyridine-3-carboxamide] | 0.00201 to 0.005 µM |
| O=C1c2ccccc2CN1C1CC2(CC(c3n[nH]c(=O)c4ccccc34)C2)C1 [Example 457, 4-((aR)-6-(1-oxoisoindolin-2-yl)spiro[3.3]heptan-2-yl)phthalazin-1(2H)-one] | 0.0151 to 0.1 µM |
| O=C1N[C@@H](Cc2ccccc2)CN1[C@H]1CC2(C[C@H](c3n[nH]c(=O)c4ccccc43)C2)C1 (stereo partly drawn) [Example 458, 4-((aR)-6-((S)-4-benzyl-2-oxoimidazolidin-1-yl)spiro[3.3]heptan-2-yl)phthalazin-1(2H)-one] | 0.1 to 2.1 µM |
| [H][C@]1(c2n[nH]c(=O)c3ccccc32)C[C@@]2(C[C@H](N3C[C@@H](Cc4ccccc4)NC3=O)C2)C1 (stereo partly drawn) [Example 459, 4-((aR)-6-((R)-4-benzyl-2-oxoimidazolidin-1-yl)spiro[3.3]heptan-2-yl)phthalazin-1(2H)-one] | 0.1 to 2.1 µM |
| O=c1[nH]nc([C@H]2CC3(C[C@H](Nc4ccccc4[N+](=O)[O-])C3)C2)c2ccccc12 (stereo partly drawn) [Example 460, 4-((aR)-6-((2-nitrophenyl)amino)spiro[3.3]heptan-2-yl)phthalazin-1(2H)-one] | 0.0151 to 0.1 µM |
| [H][C@]1(c2n[nH]c(=O)c3ccccc32)C[C@]2(C[C@@H](n3c(=O)[nH]c4ccccc43)C2)C1 (stereo partly drawn) [Example 461, 4-((aR)-6-(2-oxo-2,3-dihydro-1H-benzo[d]imidazol-1-yl)spiro[3.3]heptan-2-yl)phthalazin-1(2H)one] | 0.1 to 2.1 µM |
| O=C(N[C@H]1CC2(C1)C[C@H](c1n[nH]c(=O)c3ccccc31)C2)c1cnn2cccc(C3CC3)c12 (stereo partly drawn) [Example 462, 4-cyclopropyl-N-((aR)-6-(4-oxo-3,4-dihydrophthalazin-1-yl)spiro[3.3]heptan-2-yl)pyrazolo[1,5-a]pyridine-3-carboxamide] | 0.0151 to 0.1 µM |
| Cn1cc(-c2cnc(C(=O)N[C@H]3CC4(C3)C[C@H](c3n[nH]c(=O)c5ccccc53)C4)c(F)c2)cn1 (stereo partly drawn) [Example 463, 3-fluoro-5-(1-methyl-1H-pyrazol-4-yl)-N-((aR)-6-(4-oxo-3,4-dihydrophthalazin-1-yl)spiro[3.3]heptan-2-yl)picolinamide] | 0.0151 to 0.1 µM |
| O=C(OC1CC2(C1)CC(c1n[nH]c(=O)c3ccccc13)C2)N1Cc2ccccc2C1 (stereo not drawn) [Example 464, 6-(4-oxo-3,4-dihydrophthalazin-1-yl)spiro[3.3]heptan-2-yl isoindoline-2-carboxylate] | 0.1 to 2.1 µM |
| CS(=O)(=O)c1ccn2c(C(=O)N[C@H]3CC4(C3)C[C@H](c3n[nH]c(=O)c5ccccc53)C4)cnc2c1 (stereo partly drawn) [Example 465, 7-(methylsulfonyl)-N-((aR)-6-(4-oxo-3,4-dihydrophthalazin-1-yl)spiro[3.3]heptan-2-yl)imidazo[1,2-a]pyridine-3-carboxamide] | 0.0051 to 0.015 µM |
| O=C(NC1CC2(C1)CC(c1n[nH]c(=O)c3ccccc13)C2)c1cnn2ccncc12 [Example 467, N-((aR)-6-(4-oxo-3,4-dihydrophthalazin-1-yl)spiro[3.3]heptan-2-yl)pyrazolo[1,5-a] pyrazine-3-carboxamide] | 0.0151 to 0.1 µM |
| O=C(NC1CC2(C1)CC(c1n[nH]c(=O)c3ccccc13)C2)C1Cc2cc(Br)ccc2N1 [Example 468, 5-bromo-N-((aR)-6-(4-oxo-3,4-dihydrophthalazin-1-yl)spiro[3.3]heptan-2-yl)indoline-2-carboxamide,TFA] | 0.1 to 2.1 µM |
| CC(C)(Oc1ccc2c(C(=O)N[C@H]3CC4(C3)C[C@H](c3n[nH]c(=O)c5ccccc53)C4)cnn2c1)C(=O)O (stereo partly drawn) [Example 469, 2-methyl-2-((3-(((aR)-6-(4-oxo-3,4-dihydrophthalazin-1-yl)spiro[3.3]heptan-2-yl)carbamoyl)pyrazolo[1,5-a]pyridin-6-yl)oxy)propanoic acid] | 0.0151 to 0.1 µM |
| O=C(N[C@H]1CC2(C1)C[C@H](c1n[nH]c(=O)c3ccccc31)C2)c1cnc2cc(N3CCOCC3)ccn12 (stereo partly drawn) [Example 470, 7-morpholino-N-((aR)-6-(4-oxo-3,4-dihydrophthalazin-1-yl)spiro[3.3]heptan-2-yl)imidazo[1,2-a]pyridine-3-carboxamide, TFA] | 0.0002 to 0.002 µM |
| [H][C@]1(c2n[nH]c(=O)c3ccccc32)C[C@]2(C[C@@H](NC(=O)c3cnc4cc(OC5CCC(F)(F)CC5)ccn34)C2)C1 (stereo partly drawn) [Example 471, 7-((4,4-difluoro-cyclohexyl)oxy)-N-((aR)-6-(4-oxo-3,4-dihydro-phthalazin-1-yl)spiro[3.3]heptan-2-yl)imidazo[1,2-a]pyridine-3-carboxamide, TFA] | 0.00201 to 0.005 µM |

Tested on: spontaneously hypertensive rat, renal hypertensive rat and deoxycortisone acetate salt hypertensive rat models
Experiment: not given
Details: control rats; cited from earlier work

| SMILES | blood pressure |
| --- | --- |
| C[C@@H](N)[C@H]1CC[C@H](C(=O)Nc2ccncc2)CC1 [Example Y-27632] | only a minor effect on blood pressure |

Same assay, conditions: three rat models of hypertension; cited from earlier work

| SMILES | blood pressure |
| --- | --- |
| C[C@@H](N)[C@H]1CC[C@H](C(=O)Nc2ccncc2)CC1 [Example Y-27632] | significantly decrease blood pressure |
